Data from PubChem BioAssay (NCI).
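Method: 48-hour compound exposure of cells in 96-well plates, five concentrations, linear interpolation of endpoints. At the TGI there is no net growth.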

Legend:
Assay in all cases: NCI-60 cell line screen, 48 h
786-0 renal = tested on: 786-0 renal
A498 renal = tested on: A498 renal
A549 NSCLC = tested on: A549 NSCLC
ACHN renal = tested on: ACHN renal
BT-549 breast = tested on: BT-549 breast
DU-145 prostate = tested on: DU-145 prostate
HCC-2998 colon = tested on: HCC-2998 colon
HCT-116 colon = tested on: HCT-116 colon
HCT-15 colon = tested on: HCT-15 colon
HOP-62 NSCLC = tested on: HOP-62 NSCLC
HS 578T breast = tested on: HS 578T breast
HT29 colon = tested on: HT29 colon
IGROV1 ovarian = tested on: IGROV1 ovarian
K-562 leukemia = tested on: K-562 leukemia
KM12 colon = tested on: KM12 colon
LOX IMVI melanoma = tested on: LOX IMVI melanoma
M14 melanoma = tested on: M14 melanoma
MALME-3M melanoma = tested on: MALME-3M melanoma
MCF7 breast = tested on: MCF7 breast
MDA-MB-231 breast = tested on: MDA-MB-231 breast
MDA-MB-435 = tested on: MDA-MB-435
MDA-N = tested on: MDA-N
NCI-H226 lung = tested on: NCI-H226 lung
NCI-H23 lung = tested on: NCI-H23 lung
NCI-H460 lung = tested on: NCI-H460 lung
OVCAR-3 ovarian = tested on: OVCAR-3 ovarian
OVCAR-5 ovarian = tested on: OVCAR-5 ovarian
OVCAR-8 ovarian = tested on: OVCAR-8 ovarian
PC-3 prostate = tested on: PC-3 prostate
RPMI-8226 leukemia = tested on: RPMI-8226 leukemia
RXF 393 renal = tested on: RXF 393 renal
SF-268 CNS = tested on: SF-268 CNS
SF-295 CNS = tested on: SF-295 CNS
SF-539 CNS = tested on: SF-539 CNS
SK-MEL-2 melanoma = tested on: SK-MEL-2 melanoma
SK-MEL-28 melanoma = tested on: SK-MEL-28 melanoma
SK-MEL-5 melanoma = tested on: SK-MEL-5 melanoma
SK-OV-3 ovarian = tested on: SK-OV-3 ovarian
SN12C renal = tested on: SN12C renal
SNB-19 CNS = tested on: SNB-19 CNS
SNB-75 CNS = tested on: SNB-75 CNS
SR leukemia = tested on: SR leukemia
SW-620 colon = tested on: SW-620 colon
T-47D breast = tested on: T-47D breast
TK-10 renal = tested on: TK-10 renal
U251 CNS = tested on: U251 CNS
UACC-257 melanoma = tested on: UACC-257 melanoma
UACC-62 melanoma = tested on: UACC-62 melanoma
UO-31 renal = tested on: UO-31 renal
CAKI-1 renal = tested on: CAKI-1 renal
CCRF-CEM leukemia = tested on: CCRF-CEM leukemia
COLO 205 colon = tested on: COLO 205 colon
EKVX NSCLC = tested on: EKVX NSCLC
MOLT-4 leukemia = tested on: MOLT-4 leukemia
NCI/ADR-RES ovarian = tested on: NCI/ADR-RES ovarian
OVCAR-4 ovarian = tested on: OVCAR-4 ovarian
HL-60(TB) leukemia = tested on: HL-60(TB) leukemia
HOP-92 NSCLC = tested on: HOP-92 NSCLC
NCI-H522 lung = tested on: NCI-H522 lung

## O=C1C=CC(=O)c2c(O)c(NCCCN3CCOCC3)c(Cl)c(O)c21
786-0 renal
  TGI: 5.23 µM
A498 renal
  TGI: > 10 µM
A549 NSCLC
  TGI: > 10 µM
ACHN renal
  TGI: > 10 µM
BT-549 breast
  TGI: 3.28 µM
DU-145 prostate
  TGI: 2.95 µM
HCC-2998 colon
  TGI: 3.71 µM
HCT-116 colon
  TGI: 2.93 µM
HCT-15 colon
  TGI: 3.12 µM
HOP-62 NSCLC
  TGI: 3.86 µM
HS 578T breast
  TGI: 3.14 µM
HT29 colon
  TGI: 7.34 µM
IGROV1 ovarian
  TGI: 3.58 µM
K-562 leukemia
  TGI: 8.68 µM
KM12 colon
  TGI: 3.8 µM
LOX IMVI melanoma
  TGI: 4.26 µM
M14 melanoma
  TGI: 4.18 µM
MALME-3M melanoma
  TGI: 3.56 µM
MCF7 breast
  TGI: 3.31 µM
MDA-MB-231 breast
  TGI: 7.96 µM
MDA-MB-435
  TGI: 3.62 µM
MDA-N
  TGI: 3.09 µM
NCI-H226 lung
  TGI: > 10 µM
NCI-H23 lung
  TGI: 3.43 µM
NCI-H460 lung
  TGI: > 10 µM
OVCAR-3 ovarian
  TGI: 2.99 µM
OVCAR-5 ovarian
  TGI: 3.1 µM
OVCAR-8 ovarian
  TGI: > 10 µM
PC-3 prostate
  TGI: 9.91 µM
RPMI-8226 leukemia
  TGI: 1.54 µM
RXF 393 renal
  TGI: 3.13 µM
SF-268 CNS
  TGI: 7.07 µM
SF-295 CNS
  TGI: 5.49 µM
SF-539 CNS
  TGI: 3.21 µM
SK-MEL-2 melanoma
  TGI: 0.526 µM
SK-MEL-28 melanoma
  TGI: 3.17 µM
SK-MEL-5 melanoma
  TGI: 2.4 µM
SK-OV-3 ovarian
  TGI: > 10 µM
SN12C renal
  TGI: 3.68 µM
SNB-19 CNS
  TGI: 3.25 µM
SNB-75 CNS
  TGI: 4.15 µM
SR leukemia
  TGI: 4.64 µM
SW-620 colon
  TGI: 4.22 µM
T-47D breast
  TGI: > 10 µM
TK-10 renal
  TGI: > 10 µM
U251 CNS
  TGI: 5.55 µM
UACC-257 melanoma
  TGI: 4.94 µM
UACC-62 melanoma
  TGI: 4.81 µM
UO-31 renal
  TGI: 3.64 µM

## O=C1c2ccccc2-c2c1c(-c1ccc(O)cc1O)nc1ccc3ccccc3c21
786-0 renal
  TGI: > 100 µM
A498 renal
  TGI: > 100 µM
A549 NSCLC
  TGI: > 100 µM
ACHN renal
  TGI: > 100 µM
BT-549 breast
  TGI: > 100 µM
CAKI-1 renal
  TGI: > 100 µM
CCRF-CEM leukemia
  TGI: > 100 µM
COLO 205 colon
  TGI: > 100 µM
DU-145 prostate
  TGI: > 100 µM
EKVX NSCLC
  TGI: > 100 µM
HCC-2998 colon
  TGI: > 100 µM
HCT-116 colon
  TGI: > 100 µM
HCT-15 colon
  TGI: > 100 µM
HOP-62 NSCLC
  TGI: > 100 µM
HS 578T breast
  TGI: 75.2 µM
HT29 colon
  TGI: > 100 µM
K-562 leukemia
  TGI: > 100 µM
KM12 colon
  TGI: > 100 µM
M14 melanoma
  TGI: > 100 µM
MALME-3M melanoma
  TGI: > 100 µM
MCF7 breast
  TGI: > 100 µM
MDA-MB-231 breast
  TGI: > 100 µM
MDA-MB-435
  TGI: > 100 µM
MDA-N
  TGI: > 100 µM
MOLT-4 leukemia
  TGI: > 100 µM
NCI-H226 lung
  TGI: > 100 µM
NCI-H23 lung
  TGI: > 100 µM
NCI-H460 lung
  TGI: > 100 µM
NCI/ADR-RES ovarian
  TGI: > 100 µM
OVCAR-4 ovarian
  TGI: > 100 µM
OVCAR-5 ovarian
  TGI: > 100 µM
OVCAR-8 ovarian
  TGI: > 100 µM
PC-3 prostate
  TGI: > 100 µM
RPMI-8226 leukemia
  TGI: > 100 µM
SF-268 CNS
  TGI: > 100 µM
SF-295 CNS
  TGI: > 100 µM
SF-539 CNS
  TGI: > 100 µM
SK-MEL-2 melanoma
  TGI: > 100 µM
SK-MEL-28 melanoma
  TGI: > 100 µM
SK-OV-3 ovarian
  TGI: > 100 µM
SN12C renal
  TGI: > 100 µM
SNB-19 CNS
  TGI: > 100 µM
SNB-75 CNS
  TGI: > 100 µM
SW-620 colon
  TGI: > 100 µM
T-47D breast
  TGI: > 100 µM
U251 CNS
  TGI: > 100 µM
UACC-257 melanoma
  TGI: > 100 µM
UACC-62 melanoma
  TGI: > 100 µM
UO-31 renal
  TGI: > 100 µM

## COc1cccc(C2c3cc4c(cc3OC(NNc3ccccc3)C2C)OCO4)c1O (stereo not given)
786-0 renal
  TGI: 23.2 µM
A498 renal
  TGI: 28.2 µM
A549 NSCLC
  TGI: 19.2 µM
ACHN renal
  TGI: 15.5 µM
BT-549 breast
  TGI: 20.4 µM
CAKI-1 renal
  TGI: 23.3 µM
CCRF-CEM leukemia
  TGI: 21.7 µM
COLO 205 colon
  TGI: 23.8 µM
DU-145 prostate
  TGI: 18.9 µM
EKVX NSCLC
  TGI: 22.1 µM
HCC-2998 colon
  TGI: 6.47 µM
HCT-116 colon
  TGI: 18 µM
HCT-15 colon
  TGI: 12 µM
HL-60(TB) leukemia
  TGI: 12.9 µM
HOP-62 NSCLC
  TGI: 8.14 µM
HOP-92 NSCLC
  TGI: 28.5 µM
HS 578T breast
  TGI: 34.5 µM
HT29 colon
  TGI: 23.3 µM
IGROV1 ovarian
  TGI: 25.5 µM
K-562 leukemia
  TGI: 11.9 µM
KM12 colon
  TGI: 18.3 µM
LOX IMVI melanoma
  TGI: 27.5 µM
M14 melanoma
  TGI: 19.3 µM
MALME-3M melanoma
  TGI: 19.1 µM
MCF7 breast
  TGI: 19.6 µM
MDA-MB-231 breast
  TGI: 27.9 µM
MDA-MB-435
  TGI: 12.5 µM
MDA-N
  TGI: 8.59 µM
MOLT-4 leukemia
  TGI: 23.5 µM
NCI-H226 lung
  TGI: 29.6 µM
NCI-H23 lung
  TGI: 28 µM
NCI-H460 lung
  TGI: 15.5 µM
NCI-H522 lung
  TGI: 14.4 µM
OVCAR-3 ovarian
  TGI: 8.36 µM
OVCAR-5 ovarian
  TGI: 27.1 µM
OVCAR-8 ovarian
  TGI: 21.1 µM
PC-3 prostate
  TGI: 19.1 µM
RPMI-8226 leukemia
  TGI: 22.6 µM
RXF 393 renal
  TGI: 29.6 µM
SF-268 CNS
  TGI: 42.4 µM
SF-295 CNS
  TGI: 10.5 µM
SF-539 CNS
  TGI: 9.87 µM
SK-MEL-2 melanoma
  TGI: 25.7 µM
SK-MEL-28 melanoma
  TGI: 24.7 µM
SK-MEL-5 melanoma
  TGI: 20 µM
SK-OV-3 ovarian
  TGI: 58.4 µM
SN12C renal
  TGI: 23.5 µM
SNB-19 CNS
  TGI: 32.4 µM
SNB-75 CNS
  TGI: 47.4 µM
SR leukemia
  TGI: 6.28 µM
SW-620 colon
  TGI: 25.5 µM
T-47D breast
  TGI: 31.1 µM
TK-10 renal
  TGI: 17.3 µM
U251 CNS
  TGI: 18.7 µM
UACC-257 melanoma
  TGI: 17.7 µM
UACC-62 melanoma
  TGI: 17.9 µM
UO-31 renal
  TGI: 16.6 µM
